Where two headings read alike, the source gives them in different places.
Molecular target: HPK1 (Homo sapiens, UniProt Q92918)
Assay: HPK1 Biochemical Assay (ADP-Glo luminescence; low ATP 10 μM or high ATP 200 μM)
Conditions: read-out: Biochemical Potency (low ATP)
[1] = HPK1 ADP-Glo assay, low ATP (10 μM ATP, 2 nM HPK1)

Chain of HPK1 (Q92918 whole entry, species assumed): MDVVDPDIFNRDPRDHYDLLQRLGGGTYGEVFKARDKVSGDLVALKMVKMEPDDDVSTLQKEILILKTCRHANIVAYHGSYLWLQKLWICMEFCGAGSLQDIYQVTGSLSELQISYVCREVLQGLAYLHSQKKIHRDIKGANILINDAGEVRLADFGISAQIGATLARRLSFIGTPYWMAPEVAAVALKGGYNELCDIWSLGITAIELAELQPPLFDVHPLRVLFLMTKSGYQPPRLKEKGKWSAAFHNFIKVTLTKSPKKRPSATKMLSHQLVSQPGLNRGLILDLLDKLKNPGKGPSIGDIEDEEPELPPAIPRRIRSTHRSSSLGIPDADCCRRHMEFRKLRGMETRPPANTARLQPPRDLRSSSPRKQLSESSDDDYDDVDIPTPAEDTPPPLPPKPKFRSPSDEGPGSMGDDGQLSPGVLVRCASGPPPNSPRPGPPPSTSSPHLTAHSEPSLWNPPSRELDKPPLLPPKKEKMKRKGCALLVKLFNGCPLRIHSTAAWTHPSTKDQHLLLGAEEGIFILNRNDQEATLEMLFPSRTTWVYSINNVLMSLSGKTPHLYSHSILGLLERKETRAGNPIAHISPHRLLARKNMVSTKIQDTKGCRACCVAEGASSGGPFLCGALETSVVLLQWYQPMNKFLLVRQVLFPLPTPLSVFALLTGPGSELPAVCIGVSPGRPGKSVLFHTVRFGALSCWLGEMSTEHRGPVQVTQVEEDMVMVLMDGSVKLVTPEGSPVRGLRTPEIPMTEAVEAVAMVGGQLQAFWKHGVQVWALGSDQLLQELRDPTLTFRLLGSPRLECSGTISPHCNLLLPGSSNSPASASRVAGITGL

SMILES | IC50 (2 nM HPK1, 10 μM ATP) | IC50 [1]
Cc1ccc(Nc2cc3nc(-c4ncccc4C)sc3cn2)nc1CN1CC[C@@H](F)C1 [Example 42, 6-{[(3R)-3-Fluoropyrrolidin-1-yl]methyl}-5-methyl-N-[2-(3-methylpyridin-2-yl)-[1,3]thiazolo[5,4-c]pyridin-6-yl]pyridin-2-amine] | < 0.1 µM | –
CN1C[C@@H]2C[C@H]1CN2c1nccc(Nc2cc3nc(-c4cccc(C(C)(C)O)c4)sc3cn2)n1 [Example 122, 2-{3-[6-({2-[(1S,4S)-5-Methyl-2,5-diazabicyclo[2.2.1]heptan-2-yl]pyrimidin-4-yl}amino)-[1,3]thiazolo[5,4-c]pyridin-2-yl]phenyl}propan-2-ol] | < 0.1 µM | –
Cc1ccnn1-c1nc2cc(Nc3ccc4c(n3)C(C)(N)CCC4)ncc2s1 (centres unmarked) [Example 580] | – | < 0.1 µM
Cc1cc(Nc2cc3nc(N4CCOCC4)sc3cn2)nc(O[C@H]2CCNC2)c1 [Example 191, 4-Methyl-N-[2-(morpholin-4-yl)-[1,3]thiazolo[5,4-c]pyridin-6-yl]-6-((3S)-pyrrolidin-3-yloxy)pyridin-2-amine] | < 0.1 µM | –
Fc1ccc(-c2nc3cc(Nc4ccc(C5CCOCC5)c(CN5CCCC5)n4)ncc3s2)cc1 [Example 223] | < 0.1 µM | –
Cc1cccnc1-c1nc2cc(Nc3cccc(N4CCN(C)[C@@H](C)C4)n3)ncc2s1 [Example 94, 6-[(3S)-3,4-Dimethylpiperazin-1-yl]-N-[2-(3-methylpyridin-2-yl)-[1,3]thiazolo[5,4-c]pyridin-6-yl]pyridin-2-amine] | < 0.1 µM | –
CN1C[C@@H]2C[C@H]1CN2c1cncc(Nc2cc3nc(-c4ccnc(C(C)(C)O)c4)sc3cn2)n1 [Example 151, 2-{4-[6-({6-[(1S,4S)-5-Methyl-2,5-diazabicyclo[2.2.1]heptan-2-yl]pyrazin-2-yl}amino)-[1,3]thiazolo[5,4-c]pyridin-2-yl]pyridin-2-yl}propan-2-ol] | < 0.1 µM | –
Cc1ccc(-c2nc3cc(Nc4ccc(C5CCOCC5)c(CN5CCCC5)n4)ncc3s2)cn1 [Example 222, N-[2-(6-Methylpyridin-3-yl)-[1,3]thiazolo[5,4-c]291yridine-6-yl]-5-(oxan-4-yl)-6-[(291yridine291ne-1-yl)methyl]291yridine-2-amine] | < 0.1 µM | –
Cc1cccnc1-c1nc2cc(Nc3nccc(N4C[C@@H]5C[C@H]4CN5)n3)ncc2s1 [Example 240, 4-[(1S,4S)-2,5-Diazabicyclo[2.2.1]heptan-2-yl]-N-[2-(3-methylpyridin-2-yl)-[1,3]thiazolo[5,4-c]pyridin-6-yl]pyrimidin-2-amine] | 0.1 to 1 µM | –
COC1CCN(c2nc3cc(Nc4cc(C)cc(O[C@H]5CCNC5)n4)ncc3s2)CC1 [Example 190, N-[2-(4-Methoxypiperidin-1-yl)-[1,3]thiazolo[5,4-c]pyridin-6-yl]-4-methyl-6-((3S)-pyrrolidin-3-yloxy)pyridin-2-amine] | < 0.1 µM | –
Cc1cccnc1-c1nc2cc(Nc3cncc(N4C[C@@H](N)C[C@H]4CO)n3)ncc2s1 [Example 150, [(2S,4S)-4-Amino-1-(6-{[2-(3-methylpyridin-2-yl)-[1,3]thiazolo[5,4-c]pyridin-6-yl]amino}pyrazin-2-yl)pyrrolidin-2-yl]methanol] | < 0.1 µM | –
Cc1cccnc1-c1nc2cc(Nc3ccc(C)c(N4C[C@@H](N)C[C@@H]4CO)n3)ncc2s1 [Example 68, [(4S)-4-Amino-1-(3-methyl-6-{[2-(3-methylpyridin-2-yl)-[1,3]thiazolo[5,4-c]pyridin-6-yl]amino}pyridin-2-yl)pyrrolidin-2-yl]methanol] | < 0.1 µM | –
CS(=O)(=O)Nc1cccc(-c2nc3cc(Nc4cccc(N5C[C@@H]6C[C@H]5CN6)n4)ncc3s2)c1 [Example 326] | – | < 0.1 µM
Cc1cccnc1-c1nc2cc(Nc3ccc(C4CCOCC4)c(NCc4nccn4C)n3)ncc2s1 [Example 251, N2-[(1-Methyl-1H-imidazol-2-yl)methyl]-N6-[2-(3-methylpyridin-2-yl)-[1,3]thiazolo[5,4-c]pyridin-6-yl]-3-(oxan-4-yl)pyridine-2,6-diamine] | < 0.1 µM | –
c1cc(C2CCOCC2)c(CN2CCCC2)nc1Nc1cc2nc(N3CCCCC3)sc2cn1 [Example 232, 5-(Oxan-4-yl)-N-[2-(piperidin-1-yl)-[1,3]thiazolo[5,4-c]pyridin-6-yl]-6-[(pyrrolidin-1-yl)methyl]pyridin-2-amine] | < 0.1 µM | –
Cc1ccnn1-c1nc2cc(Nc3ccc4c(n3)C(C)(N)CC4)ncc2s1 (centres unmarked) [Example 579] | – | < 0.1 µM
Cc1cccnc1-c1nc2cc(Nc3ccc(C4CCOCC4)c(CN[C@@H]4CCOC4)n3)ncc2s1 [Example 215, N-[2-(3-Methylpyridin-2-yl)-[1,3]thiazolo[5,4-c]pyridin-6-yl]-5-(oxan-4-yl)-6-({[(3R)-oxolan-3-yl]amino}methyl)pyridin-2-amine] | < 0.1 µM | –
Cc1ccc(Nc2cc3nc(-c4cnn(C)c4)sc3cn2)nc1CN1CCCC1 [Example 51, 5-Methyl-N-[2-(1-methyl-1H-pyrazol-4-yl)-[1,3]thiazolo[5,4-c]pyridin-6-yl]-6-[(pyrrolidin-1-yl)methyl]pyridin-2-amine] | < 0.1 µM | –

SMILES | IC50 (2 nM HPK1, 10 μM ATP) | IC50 [1]
Cc1cccnc1-c1nc2cc(Nc3ccc(F)c(CN4CCCC4)n3)ncc2s1 [Example 61, 5-Fluoro-N-[2-(3-methylpyridin-2-yl)-[1,3]thiazolo[5,4-c]pyridin-6-yl]-6-[(pyrrolidin-1-yl)methyl]pyridin-2-amine] | < 0.1 µM | –
Cc1ccc(Nc2cc3nc(-c4cnn(C5CCOCC5)c4)sc3cn2)nc1CN1CCCC1 [Example 39, 5-Methyl-N-{2-[1-(oxan-4-yl)-1H-pyrazol-4-yl]-[1,3]thiazolo[5,4-c]pyridin-6-yl}-6-[(pyrrolidin-1-yl)methyl]pyridin-2-amine] | < 0.1 µM | –
CN1C[C@@H]2C[C@H]1CN2c1cncc(Nc2cc3nc(-c4cccc(C(C)(C)O)c4)sc3cn2)n1 [Example 152, 2-{3-[6-({6-[(1S,4S)-5-Methyl-2,5-diazabicyclo[2.2.1]heptan-2-yl]pyrazin-2-yl}amino)-[1,3]thiazolo[5,4-c]pyridin-2-yl]phenyl}propan-2-ol] | < 0.1 µM | –
Cc1cc(Nc2cc3nc(-c4ccnn4C)sc3cn2)nc(O[C@H]2CCNC2)c1 [Example 181, 4-Methyl-N-[2-(1-methyl-1H-pyrazol-5-yl)-[1,3]thiazolo[5,4-c]pyridin-6-yl]-6-[(3S)-pyrrolidin-3-yloxy]pyridin-2-amine] | < 0.1 µM | –
CN1C[C@@H]2C[C@H]1CN2c1cncc(Nc2cc3nc(-c4cccc(N5CCCC5=O)c4)sc3cn2)n1 [Example 143, 1-{3-[6-({6-[(1S,4S)-5-Methyl-2,5-diazabicyclo[2.2.1]heptan-2-yl]pyrazin-2-yl}amino)-[1,3]thiazolo[5,4-c]pyridin-2-yl]phenyl}pyrrolidin-2-one] | < 0.1 µM | –
Cc1ccncc1-c1nc2cc(Nc3ccc(C)c(O[C@H]4CCNC4)n3)ncc2s1 [Example 173, 5-Methyl-N-[2-(4-methylpyridin-3-yl)-[1,3]thiazolo[5,4-c]pyridin-6-yl]-6-[(3S)-pyrrolidin-3-yloxy]pyridin-2-amine] | < 0.1 µM | –
Cc1cccnc1-c1nc2cc(Nc3ccc(N4CCOCC4)c(CN4CCCCC4)n3)ncc2s1 [Example 64, N-[2-(3-Methylpyridin-2-yl)-[1,3]thiazolo[5,4-c]pyridin-6-yl]-5-(morpholin-4-yl)-6-[(piperidin-1-yl)methyl]pyridin-2-amine] | < 0.1 µM | –
C[C@@H]1CCC(=O)N1c1nc2cc(Nc3ccc(C4CCOCC4)c(CN4CCCC4)n3)ncc2s1 [Example 207, (5R)-5-Methyl-1-(6-{[5-(oxan-4-yl)-6-[(pyrrolidin-1-yl)methyl]pyridin-2-yl]amino}-[1,3]thiazolo[5,4-c]pyridin-2-yl)pyrrolidin-2-one] | 0.1 to 1 µM | –
Cc1ccn(-c2nc3cc(Nc4ccc(N5CCOCC5)c(CN5CCCC5)n4)ncc3s2)n1 [Example 195, N-[2-(3-Methyl-1H-pyrazol-1-yl)-[1,3]thiazolo[5,4-c]pyridin-6-yl]-5-(morpholin-4-yl)-6-[(pyrrolidin-1-yl)methyl]pyridin-2-amine] | < 0.1 µM | –
Cc1cc(Nc2cc3nc(-c4ccncc4)sc3cn2)nc(O[C@H]2CCNC2)c1 [Example 166, 4-Methyl-N-[2-(pyridin-4-yl)-[1,3]thiazolo[5,4-c]pyridin-6-yl]-6-[(3S)-pyrrolidin-3-yloxy]pyridin-2-amine] | < 0.1 µM | –
CN1C[C@@H]2C[C@H]1CN2c1nccc(Nc2cc3nc(-c4ccnc(N5CC[C@H](F)C5)c4)sc3cn2)n1 [Example 463] | – | < 0.1 µM
CS(=O)(=O)Nc1cccc(-c2nc3cc(Nc4cccc(N5C[C@@H]6C[C@H]5CN6)n4)ncc3s2)c1 [Example 287, N-{3-[6-({6-[(1S,4S)-2,5-diazabicyclo[2.2.1]heptan-2-yl]pyridin-2-yl}amino)-[1,3]thiazolo[5,4-c]pyridin-2-yl]phenyl}methanesulfonamide] | < 0.1 µM | –
Cc1ccc(Nc2cc3nc(-n4nccc4C)sc3cn2)nc1CN[C@@H]1CCOC1 [Example 199, 5-Methyl-N-[2-(5-methyl-1H-pyrazol-1-yl)-[1,3]thiazolo[5,4-c]pyridin-6-yl]-6-({[(3R)-oxolan-3-yl]amino}methyl)pyridin-2-amine] | < 0.1 µM | –
Cc1cccnc1-c1nc2cc(Nc3ccc(C4CCOCC4)c(C4CCNC4)n3)ncc2s1 (centres unmarked) [Example 283, N-[2-(3-Methylpyridin-2-yl)-[1,3]thiazolo[5,4-c]pyridin-6-yl]-5-(oxan-4-yl)-6-(pyrrolidin-3-yl)pyridin-2-amine] | < 0.1 µM | –
CC(C)(O)c1cc(-c2nc3cc(Nc4cc(C5CCOCC5)nc(N5C[C@@H]6C[C@H]5CN6)n4)ncc3s2)ccn1 [Example 441] | – | < 0.1 µM
FC1(F)CCN(Cc2nc(Nc3cc4nc(-c5ccncc5)sc4cn3)ccc2C2CCOCC2)C1 [Example 218, 6-[(3,3-Difluoropyrrolidin-1-yl)methyl]-5-(oxan-4-yl)-N-[2-(pyridin-4-yl)-[1,3]thiazolo[5,4-c]pyridin-6-yl]pyridin-2-amine] | < 0.1 µM | –
Cc1cccnc1-c1nc2cc(Nc3cccc(N4CCN(C)[C@H](C)C4)n3)ncc2s1 [Example 104, 6-[(3R)-3,4-Dimethylpiperazin-1-yl]-N-[2-(3-methylpyridin-2-yl)-[1,3]thiazolo[5,4-c]pyridin-6-yl]pyridin-2-amine] | < 0.1 µM | –
